Tests used:
[1] = target: T1, Nuclear receptor subfamily 1 group I member 3 (Mus musculus, UniProt O35627); assay: Transactivation of mouse CAR1 transfected in human HepG2 cells assessed as CYP2B6 expression at 1 to 30 uM after 24 hrs by luciferase reporter gene assay; format: ADME, cell-based; settings: hepg2, 24 h
T1 sequence (O35627 whole entry): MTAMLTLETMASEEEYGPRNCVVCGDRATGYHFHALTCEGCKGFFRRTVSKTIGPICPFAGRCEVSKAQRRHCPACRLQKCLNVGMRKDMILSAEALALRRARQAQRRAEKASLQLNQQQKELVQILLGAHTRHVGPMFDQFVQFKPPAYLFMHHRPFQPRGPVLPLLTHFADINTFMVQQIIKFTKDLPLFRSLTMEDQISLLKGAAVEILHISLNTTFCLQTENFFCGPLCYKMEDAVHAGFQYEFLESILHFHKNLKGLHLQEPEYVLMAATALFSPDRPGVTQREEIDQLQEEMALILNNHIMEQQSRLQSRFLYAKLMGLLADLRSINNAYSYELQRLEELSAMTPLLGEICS

[2] = target: T2, Nuclear receptor subfamily 1 group I member 2 (Rattus norvegicus, UniProt Q9R1A7); assay: Transactivation of rat PXR at 0.1 to 30 uM after 24 to 48 hrs by cell-based luciferase reporter gene assay; format: ADME
T2 sequence (Q9R1A7 whole entry): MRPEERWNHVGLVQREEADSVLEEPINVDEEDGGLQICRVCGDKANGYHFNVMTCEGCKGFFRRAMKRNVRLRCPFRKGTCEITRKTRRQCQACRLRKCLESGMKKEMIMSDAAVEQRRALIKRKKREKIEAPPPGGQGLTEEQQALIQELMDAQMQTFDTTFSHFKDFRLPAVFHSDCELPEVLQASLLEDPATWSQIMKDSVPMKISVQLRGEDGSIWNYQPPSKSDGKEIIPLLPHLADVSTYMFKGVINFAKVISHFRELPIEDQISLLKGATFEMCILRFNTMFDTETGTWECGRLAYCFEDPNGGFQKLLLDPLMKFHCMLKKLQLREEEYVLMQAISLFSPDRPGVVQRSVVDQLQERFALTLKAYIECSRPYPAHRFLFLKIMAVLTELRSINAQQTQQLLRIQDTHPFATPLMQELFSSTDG

[3] = Transactivation of human CAR1 Ala retention mutant transfected in human HepG2 cells assessed as CYP2B6 expression at 1 to 30 uM after 24 hrs by luciferase reporter gene assay; format: ADME, cell-based; settings: hepg2, 24 h
[4] = target: T3, Nuclear receptor subfamily 1 group I member 3 (Homo sapiens, UniProt Q14994); assay: Transactivation of human CAR1 transfected in human HepG2 cells assessed as CYP2B6 expression at 1 to 30 uM after 24 hrs by luciferase reporter gene assay; format: ADME, cell-based; settings: hepg2, 24 h
T3 sequence (Q14994 whole entry): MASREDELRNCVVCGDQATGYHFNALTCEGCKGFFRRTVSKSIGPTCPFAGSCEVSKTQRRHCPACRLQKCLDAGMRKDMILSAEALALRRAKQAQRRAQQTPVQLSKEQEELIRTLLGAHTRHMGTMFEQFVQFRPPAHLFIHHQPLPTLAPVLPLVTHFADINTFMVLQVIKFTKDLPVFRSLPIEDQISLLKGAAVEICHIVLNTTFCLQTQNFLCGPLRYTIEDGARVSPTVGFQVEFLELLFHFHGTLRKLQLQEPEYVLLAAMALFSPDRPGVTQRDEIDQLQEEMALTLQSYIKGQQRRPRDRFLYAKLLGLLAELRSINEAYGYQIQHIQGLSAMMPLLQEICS

[5] = target: T4, Aryl hydrocarbon receptor (Homo sapiens, UniProt P35869); assay: Transactivation of human AhR at 0.1 to 30 uM after 24 to 48 hrs by cell-based luciferase reporter gene assay
T4 sequence (P35869 whole entry): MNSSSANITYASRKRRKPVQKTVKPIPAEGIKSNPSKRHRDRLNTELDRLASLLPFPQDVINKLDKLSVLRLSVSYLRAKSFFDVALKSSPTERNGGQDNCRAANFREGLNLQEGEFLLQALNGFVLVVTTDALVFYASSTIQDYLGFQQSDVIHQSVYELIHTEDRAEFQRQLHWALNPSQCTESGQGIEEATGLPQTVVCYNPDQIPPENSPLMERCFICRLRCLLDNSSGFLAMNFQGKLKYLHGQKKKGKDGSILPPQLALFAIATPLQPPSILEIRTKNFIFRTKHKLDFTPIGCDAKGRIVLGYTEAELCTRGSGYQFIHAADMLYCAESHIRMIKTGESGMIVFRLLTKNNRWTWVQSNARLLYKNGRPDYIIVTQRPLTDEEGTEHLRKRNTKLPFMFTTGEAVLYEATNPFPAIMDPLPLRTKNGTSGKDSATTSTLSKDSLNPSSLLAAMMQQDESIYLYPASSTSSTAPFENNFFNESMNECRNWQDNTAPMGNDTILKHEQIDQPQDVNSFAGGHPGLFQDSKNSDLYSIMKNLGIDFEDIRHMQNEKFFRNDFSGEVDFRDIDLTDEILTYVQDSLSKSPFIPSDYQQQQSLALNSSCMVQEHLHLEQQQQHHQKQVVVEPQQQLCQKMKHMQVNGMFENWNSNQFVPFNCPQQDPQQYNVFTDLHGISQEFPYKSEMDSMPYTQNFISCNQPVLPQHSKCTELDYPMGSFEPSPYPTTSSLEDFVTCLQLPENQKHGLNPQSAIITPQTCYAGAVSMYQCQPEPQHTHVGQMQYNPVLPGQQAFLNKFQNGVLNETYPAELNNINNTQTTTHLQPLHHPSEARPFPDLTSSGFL

[6] = target: T3, Nuclear receptor subfamily 1 group I member 3; assay: Transactivation of human CAR1 transfected in human primary hepatocytes assessed as nuclear translocation at 30 uM by confocal laser scanning microscopy; format: cell-based, Hepatocyte
[7] = target: T3, Nuclear receptor subfamily 1 group I member 3; assay: Transactivation of human CAR1 transfected in human primary hepatocytes assessed as nuclear translocation at 1 mM by confocal laser scanning microscopy; format: cell-based, Hepatocyte; settings: 1000 µM

Compound: COc1ccc2c3c1O[C@H]1C(=O)CC[C@@]4(O)[C@@H](C2)NCC[C@]314
- Activity [1]: Not Active
- Activity [2]: Not Active
- Activity [3]: Not Active
- Activity [4]: Active
- Activity [5]: Not Active

Compound: COc1ccc2c3c1O[C@H]1C(=O)CC[C@@]4(O)[C@@H](C2)N(C)CC[C@]314 [OXYCODONE]
- Activity [1]: Not Active
- Activity [2]: Not Active
- Activity [3]: Not Active
- Activity [6]: Not Active
- Activity [4]: Active
- Activity [5]: Not Active

Compound: CN1CC[C@]23c4c5ccc(O)c4O[C@H]2C(=O)CC[C@@]3(O)[C@H]1C5 [OXYMORPHONE]
- Activity [1]: Not Active
- Activity [2]: Not Active
- Activity [3]: Not Active
- Activity [4]: Active
- Activity [5]: Not Active

Compound: CCC1(c2ccccc2)C(=O)NC(=O)NC1=O [PHENOBARBITAL]
- Activity [7]: Active
